# Test results reported in patent publication US10912761B2, “Methods and compositions involving RAD51 inhibitors” (The University of Chicago, priority 2012, dated 2021).
# “Also recorded” adds a separate entry of the source.
# How the values were obtained:
# [1] = Glutathione stability experiments (HPLC); format: physicochemical; settings: L-glutathione 5 mol equiv, DMSO, 37° C., hourly HPLC; up to 24 hours
# Experimental: FIG. 1. Reaction of RI-1, RI-2, and 9b with glutathione. Glutathione is a tripeptide that contains a nucleophilic sulfhydryl group. Glutathione may react irreversibly with a Michael acceptor compound containing a suitable leaving group at the 4-position.
# Compound (10 mg) and L-glutathione (5 mol equiv) were placed in a round-bottomed flask under argon and dissolved in DMSO (1 mL). The reaction was heated to 37° C. and stirred. Aliquots of the reaction mixture were removed every hour, including one at t=0 min, and analyzed by HPLC. Ratio of substrate and glutathione adduct was recorded and the expected glutathione adduct was then identified using mass spectrometry
# human RAD51 protein [2] = molecular target: T1, human RAD51 protein (Homo sapiens, UniProt Q06609); assay: FP-based DNA binding assay (RAD51 binding to fluorescently labeled ssDNA); format: biochemical; parameters: made in house; settings: for time dependence of inhibitory activity on the DNA binding activity of RAD51: compound added after the protein has been released from the beads (FIG. 2B)
# T1 sequence (Q06609 1-339): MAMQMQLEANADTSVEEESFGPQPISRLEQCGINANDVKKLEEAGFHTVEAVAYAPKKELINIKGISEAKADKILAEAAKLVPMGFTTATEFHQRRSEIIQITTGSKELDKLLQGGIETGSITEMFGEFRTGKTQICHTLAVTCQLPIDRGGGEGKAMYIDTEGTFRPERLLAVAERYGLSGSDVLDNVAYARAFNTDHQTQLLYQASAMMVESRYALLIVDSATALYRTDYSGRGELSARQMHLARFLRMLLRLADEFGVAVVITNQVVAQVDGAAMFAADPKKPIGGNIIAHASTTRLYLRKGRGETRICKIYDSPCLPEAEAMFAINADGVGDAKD
# Experimental: The synthesized compounds were tested for biological activity in a two-stage manner. They were first evaluated for their ability to inhibit the binding of human RAD51 protein to ssDNA. This primary assay utilizes a fluorescence polarization (FP) based method that involves incubation of purified RAD51 protein with oligonucleotides, which are end-labeled with a fluorescent tag. The binding of RAD51 to this substrate ssDNA is quantified as a function of polarization of light emitted by the fluorescent tag. Chemical analogs were then tested further using secondary cell-based assays. Since cell lethality from RI-1 is thought to be a function of cellular RAD51 inhibition for RI-1, LD50 values were used as a surrogate measurement of in vivo activity against RAD51 in cells. This cell-based assay was also simultaneously utilized to evaluate for compound-induced sensitization of cells to the cross-linking chemotherapeutic drug MMC, thereby confirming that toxic effects are secondary to HR inhibition.
# Human RAD51 protein was prepared as previously described (Budke et al., 2012). RAD51 was incubated with 100 nM (nucleotide concentration) of a 45-mer oligo-dT 5′ Alexa 488 end-labeled substrate. Binding was measured as a function of fluorescence polarization (FP) of the Alexa 488 tag. 50 μl reactions were performed in 20 mM HEPES, pH 7.5, 2 mM ATP, 10 mM MgCl2, 30 mM NaCl, 2% glycerol, 250 μM BSA, and 4% DMSO. Black polystyrene flat-bottom 384-well reaction plates were read using a Tecan Infinite F200 Pro plate reader, equipped with 485(20)/535(25) FP filters. For experiments used to determine IC50 values, RAD51 concentrations (typically 190-290 nM) were selected to generate FP signal of 50-80% maximum in the absence of any inhibitory compound. Reported IC50 values represent the mean result of at least three replicate wells, and reported errors connote standard deviation.
# immortalized human cells = assay: MMP-1-60 toxicity to immortalized human cells with or without pre-incubation in media; format: cell-based; settings: 4 hours of pre-incubation with tissue culture media vs. no pre-incubation
# Experimental: FIGS. 6A-6B: A. ssDNA binding activity of RAD51 in response to RAD51 antagonists. […] B. MMP-1-60 toxicity to immortalized human cells.
# HEK293 cells were plated into 96-well tissue culture plates at a density of 300 cells per well in the presence or absence of 50 nM MMC (Ben Venue Laboratories) for 24 hours at 37° C., 5% CO2. Media was subsequently replaced with fresh media containing 0.5% DMSO plus a candidate compound for an additional 24 hours. Compounds were then removed, and cultures were allowed to grow to a 50-70% confluence. Average survival from at least three replicates was measured using CellGlo reagent (Promega) or via a previously described sulforhodamine B method (Jayathilaka et al., 2008).
# human RAD51 protein [3] = molecular target: T1, human RAD51 protein; assay: DNA binding competition assay: bead-immobilized RAD51 treated with compound, washed, cleaved, tested by FP (reversible vs. irreversible inhibition); settings: washed extensively, protein cleaved from beads (FIG. 2C)
# Experimental: Reversible vs. irreversible inhibition of RAD51 by compound was tested by incubating compounds with RAD51 while still attached to beads and prior to washing. […] Reversible vs. irreversible inhibition of RAD51. Biotinylated RAD51 was immobilized on streptavidin polyacrylamide beads. The RAD51-coated beads were incubated with compound and subsequently washed extensively to remove any compound that was not covalently attached. The treated protein was subsequently cleaved from the beads and tested for DNA binding activity using our standard FP-based assay.
# Tagged RAD51 was immobilized on streptavidin-conjugated polyacrylamide beads (Ultralink, Pierce) and incubated for 30 min at 37° C. with candidate compounds in 20 mM HEPES, pH 7.5, 30 mM NaCl, 2% glycerol, 4% DMSO. The polyacrylamide beads were then washed twice with ice-cold wash buffer (20 mM Tris-HCl, pH 8.0, 300 mM NaCl) containing 4% DMSO and then once with ice-cold wash buffer without DMSO. RAD51 protein was subsequently eluted from beads with TEV protease (gift from Phoebe Rice) and analyzed for DNA binding activity using the above FP-based DNA binding assay.
# [4] = test system: HR repair in HEK293 cells (DR-GFP reporter); assay: Quantification of HR efficiency in DR-GFP reporter cells; format: cell-based, human; settings: 24 hours
# Experimental: (§1) FIG. 3. Relative DNA repair efficiencies. […] Reporter-containing HEK293 cells were electroporated with an I-SceI endonuclease-expressing plasmid, incubated with compounds as indicated for 24 hours, and subjected to FACS analysis 24 hours thereafter. […] The reporter construct that measures HR repair consists of two non-functional copies of green fluorescence protein (GFP), one of which is interrupted by an I-SceI endonuclease site. Induction of a DNA break at the I-SceI site can lead to repair by homologous gene conversion that generates a functional copy of GFP (Pierce et al., 1999). A second parallel assay makes use of cells that contain a different reporter that measures single-strand annealing (SSA), which is an alternative method of re-ligating DNA when HR cannot be completed. SSA efficiency is known to be elevated in situations where RAD51 function has been disrupted (Mansour et al., 2008, Stark et al., 2004, and Bennardo et al., 2008). […] HEK293 cells stably transfected with the DR-GFP or SA-GFP reporters were provided by Jeremy Stark (Bennardo et al., 2008). 0.5-1.0×10^7 cells at 80% confluence were electroporated with 30-60 μg pCβASce (or pCAGGS) in 4 mm cuvettes, using the following settings: 240-350 V, 975 μF. […] Compounds were removed and cells were incubated for an additional 24 hours in normal media, following which they were analyzed with a Becton-Dickinson FACScan. […]
# [5] = test system: SSA in HEK293 cells (SA-GFP reporter); assay: Quantification of SSA efficiency in SA-GFP reporter cells; format: cell-based, human; settings: 24 hours
# Experimental: as §1
# HEK293 cells = assay: Cell toxicity assay: sensitization to MMC; format: cell-based, human; settings: 24 hours MMC, then 24 hours compound, 5-7 days drug-free
# Description: Cells were then allowed to grow in drug-free media for an additional 5-7 days. Average survival for each condition is normalized to the MMC-free control of that condition.
smiles,measurement,setting,value
"O=C1C(I)=C(N2CCOCC2)C(=O)N1c1ccc(Cl)c(Cl)c1 [Compound 9b, 1-(3,4-Dichlorophenyl)-3-iodo-4-morpholino-1H-pyrrole-2,5-dione]",reaction with glutathione,[1],no detectable compound at the first time point measured
"COc1ccc(C2=C(SCCN(C)C)C(=O)N(c3ccc(Cl)c(Cl)c3)C2=O)cc1 [MMP-1-60, 1-(3,4-dichlorophenyl)-3-((2-(dimethylamino)ethyl)thio)-4-(4-methoxyphenyl)-1H-pyrrole-2,5-dione]","RAD51 inhibitory activity (ssDNA binding), relative",human RAD51 protein [2]; FIG. 6A,intermediate to RI-1 and RI-2
same,cell toxicity with vs. without pre-incubation (stability),immortalized human cells,comparable cell toxicity
"O=C1C(Cl)=C(N2CCOCC2)C(=O)N1c1ccc(Cl)c(Cl)c1 [RI-1, 1-(3,4-Dichlorophenyl)-3-chloro-4-morpholino-1H-pyrrole-2,5-dione, reference compound]",DNA binding activity of RAD51 treated with compound prior to washing,human RAD51 protein [3]; 10 μM compound,significantly inactivated
same,time dependence of inhibitory activity on the DNA binding activity of RAD51,human RAD51 protein [2],time-dependent
same,HR repair efficiency,[4]; 20 μM,inhibition of HR
same,reaction with glutathione,[1],reduced glutathione reactivity
same,SSA efficiency,[5]; 20 μM,stimulation of SSA
"COc1ccc(C2=C(N3CCOCC3)C(=O)N(c3ccc(Cl)c(Cl)c3)C2=O)cc1 [RI-2, 1-(3,4-Dichloro-phenyl)-3-(4-methoxy-phenyl)-4-morpholin-4-yl-pyrrole-2,5-dione]",sensitization to cross-linking chemotherapy (MMC),HEK293 cells,sensitizes human cells to cross-linking chemotherapy
same,DNA binding activity of RAD51 treated with compound prior to washing,human RAD51 protein [3]; concentrations up to 240 μM,no measurable loss of DNA binding activity
same,IC50,"human RAD51 protein [2]; RAD51 binding to ssDNA, FP, read-out: IC50 in the standard DNA binding assay",44.2 µM
same,time dependence of inhibitory activity on the DNA binding activity of RAD51,human RAD51 protein [2],no time-dependent increase
same,HR repair efficiency,[4]; 60 μM,very similar effects; also recorded: inhibition of HR
same,reaction with glutathione,[1],no reactivity toward glutathione
same,SSA efficiency,[5]; 60 μM,very similar effects; also recorded: stimulation of SSA
